Key:
[1] = target: T1, Human HDAC7 (Homo sapiens, UniProt Q8WUI4); test: HDAC7 biochemical assay, class IIa-specific substrate; details: read-out: HDAC Isoform IC50 (nM) 7
T1 construct: (a.a. 518-end) with N-terminal GST tag; GST (N); host or cells: baculovirus expression system
T1 sequence (Q8WUI4 518-952 limits assumed): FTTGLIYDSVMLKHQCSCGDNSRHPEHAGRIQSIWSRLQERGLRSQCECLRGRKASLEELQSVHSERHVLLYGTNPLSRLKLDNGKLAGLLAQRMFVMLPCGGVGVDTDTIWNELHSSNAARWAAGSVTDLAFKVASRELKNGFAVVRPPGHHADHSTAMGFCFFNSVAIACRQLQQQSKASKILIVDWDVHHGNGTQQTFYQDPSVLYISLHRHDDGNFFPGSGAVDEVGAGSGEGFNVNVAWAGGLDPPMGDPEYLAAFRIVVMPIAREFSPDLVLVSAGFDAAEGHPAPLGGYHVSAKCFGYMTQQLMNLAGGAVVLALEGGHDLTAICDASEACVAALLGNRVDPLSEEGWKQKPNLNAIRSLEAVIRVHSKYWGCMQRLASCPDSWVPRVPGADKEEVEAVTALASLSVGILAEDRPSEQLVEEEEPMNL
Summary of the method: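 Two-step fluorogenic readout: class IIa-selective trifluoroacetyl-lysine AMC substrate (50 μM) deacetylated by N-terminal GST-HDAC7 fragment (0.001 ng/ul), then digested by developer, Ex/Em 360/460. Reaction: 30 min, room temperature, Tris-HCl pH 8.0, NaCl/KCl/MgCl2, 1 mg/mL BSA, 1% DMSO.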

[2] = target: T2, Human HDAC11 (Homo sapiens, UniProt Q96DB2); test: HDAC11 biochemical assay, class IIa-specific substrate; details: read-out: HDAC Isoform IC50 (nM) 11
T2 construct: Human HDAC11 (full length); His (N); host or cells: baculovirus expression system
T2 sequence (Q96DB2 1-347): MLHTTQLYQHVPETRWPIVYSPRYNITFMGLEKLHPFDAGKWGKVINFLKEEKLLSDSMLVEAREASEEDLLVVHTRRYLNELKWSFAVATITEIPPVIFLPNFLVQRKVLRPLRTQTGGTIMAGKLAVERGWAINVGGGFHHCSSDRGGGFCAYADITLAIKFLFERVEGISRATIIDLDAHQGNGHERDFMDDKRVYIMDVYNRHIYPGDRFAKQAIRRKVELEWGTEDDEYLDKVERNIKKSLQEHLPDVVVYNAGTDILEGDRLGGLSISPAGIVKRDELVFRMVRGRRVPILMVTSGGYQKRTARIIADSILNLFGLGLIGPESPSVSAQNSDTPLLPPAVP
Summary of the method: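 Full-length N-His human HDAC11 from baculovirus, 5 ng/μl, incubated with 50 μM Boc-Lys(trifluoroacetyl)-AMC for 30 min at 30 °C. Buffer: 50 mM Tris-HCl pH 8.0, 137 mM NaCl, 2.7 mM KCl, 1 mM MgCl2, 1 mg/mL BSA, 1% DMSO. Developer releases AMC; fluorescence read at 360/460 nm.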

[3] = target: T3, Human HDAC5 (Homo sapiens, UniProt Q9UQL6); test: HDAC5 biochemical assay, class IIa-specific substrate; details: read-out: HDAC Isoform IC50 (nM) 5
T3 construct: full length with C-terminal His tag, MW=51.1 kDa; His (C); host or cells: baculovirus expression system
T3 sequence (Q9UQL6 656-1122 limits assumed): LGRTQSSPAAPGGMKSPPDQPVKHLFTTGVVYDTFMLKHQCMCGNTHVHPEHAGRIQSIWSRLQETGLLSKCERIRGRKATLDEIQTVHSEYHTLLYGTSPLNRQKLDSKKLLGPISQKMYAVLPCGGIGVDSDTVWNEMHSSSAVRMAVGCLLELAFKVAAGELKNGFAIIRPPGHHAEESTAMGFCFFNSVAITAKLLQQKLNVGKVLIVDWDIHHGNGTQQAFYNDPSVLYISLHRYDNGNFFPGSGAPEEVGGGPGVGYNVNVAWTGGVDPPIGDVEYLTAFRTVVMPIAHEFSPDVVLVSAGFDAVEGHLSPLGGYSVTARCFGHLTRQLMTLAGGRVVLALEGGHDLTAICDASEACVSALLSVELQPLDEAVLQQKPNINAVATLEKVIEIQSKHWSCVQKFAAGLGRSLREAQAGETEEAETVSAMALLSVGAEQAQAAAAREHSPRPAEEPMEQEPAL
Summary of the method: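 Two-step fluorogenic read-out: deacetylated trifluoroacetyl-lysine AMC substrate (50 μM) digested by developer, measured at Ex/Em 360/460. Deacetylation step: 0.05 ng/ul His-tagged full-length baculoviral enzyme with compound, 30 min, room temperature, pH 8.0 Tris with 1 mg/mL BSA and 1% DMSO.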

[4] = target: T4, Human HDAC2 (Homo sapiens, UniProt Q92769); test: HDAC2 biochemical assay, AMC-labeled peptide substrate; details: read-out: HDAC Isoform IC50 (nM) 2
T4 construct: full length with C-terminal GST-tag; GST (C); host or cells: baculovirus expression system
T4 sequence (Q92769 whole entry, canonical isoform): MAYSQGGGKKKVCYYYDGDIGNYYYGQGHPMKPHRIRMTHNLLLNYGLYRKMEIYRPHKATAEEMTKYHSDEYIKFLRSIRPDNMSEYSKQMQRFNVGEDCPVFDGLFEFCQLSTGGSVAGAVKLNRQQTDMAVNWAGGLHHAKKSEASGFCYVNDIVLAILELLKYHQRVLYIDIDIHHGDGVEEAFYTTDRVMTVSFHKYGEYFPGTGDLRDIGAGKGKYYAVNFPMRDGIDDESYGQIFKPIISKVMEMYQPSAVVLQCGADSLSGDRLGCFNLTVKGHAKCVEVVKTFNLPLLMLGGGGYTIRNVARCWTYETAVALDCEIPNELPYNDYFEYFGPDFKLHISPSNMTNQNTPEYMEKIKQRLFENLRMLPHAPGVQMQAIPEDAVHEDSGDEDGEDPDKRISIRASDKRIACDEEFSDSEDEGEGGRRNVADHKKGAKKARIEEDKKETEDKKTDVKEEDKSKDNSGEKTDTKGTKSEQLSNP
Summary of the method: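 Full-length human HDAC2 with C-terminal GST tag, baculovirus-expressed, at 0.07 ng/ul with 50 μM RHKK(Ac)AMC substrate in Tris-HCl pH8.0 buffer with BSA, 1% DMSO final. Incubated 1 hour at 30° C with compounds, then developer added; fluorescence read at 360/460 Ex/Em.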

[5] = target: T5, Complex of human HDAC3 and human NCOR2 (Homo sapiens, UniProt O15379); test: HDAC3 biochemical assay, AMC-labeled peptide substrate; details: read-out: HDAC Isoform IC50 (nM) 3
T5 construct: full length with C-terminal His tag, MW=49.7 kDa; His (C); host or cells: baculovirus expression system (co-expressed)
T5 sequence (O15379 whole entry, canonical isoform): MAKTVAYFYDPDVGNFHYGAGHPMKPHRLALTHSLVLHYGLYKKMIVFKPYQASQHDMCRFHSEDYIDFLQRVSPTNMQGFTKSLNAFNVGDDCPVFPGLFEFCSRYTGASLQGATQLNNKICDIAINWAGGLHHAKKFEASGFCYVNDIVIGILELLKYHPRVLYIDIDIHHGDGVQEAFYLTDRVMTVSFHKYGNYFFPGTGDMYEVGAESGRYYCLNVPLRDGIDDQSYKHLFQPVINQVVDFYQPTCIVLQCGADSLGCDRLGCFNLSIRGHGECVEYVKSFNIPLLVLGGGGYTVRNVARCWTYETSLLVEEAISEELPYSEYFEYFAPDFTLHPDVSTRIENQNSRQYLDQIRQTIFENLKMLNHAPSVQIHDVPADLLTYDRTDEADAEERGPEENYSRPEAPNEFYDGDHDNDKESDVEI
T5 sequence (Q9Y618 395-489 partner limits assumed): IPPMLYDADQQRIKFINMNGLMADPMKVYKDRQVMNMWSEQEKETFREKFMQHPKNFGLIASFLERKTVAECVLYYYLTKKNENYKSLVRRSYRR
Summary of the method: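 Two-stage fluorogenic read: compounds incubated 1 h at 30° C with 50 μM RHKK(Ac)AMC and 0.1 ng/ul HDAC3–NCOR2(395-489) complex (Tris pH8.0, NaCl, KCl, MgCl2, BSA, 1% DMSO). Developer digestion of deacetylated product gives signal at Ex 360/Em 460.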

| SMILES | IC50 [1] | IC50 [2] | IC50 [3] | IC50 [4] | IC50 [5] |
| --- | --- | --- | --- | --- | --- |
| [O-][S+]1CCN(Cc2ccc(N(Cc3ccc(-c4noc(C(F)(F)F)n4)s3)c3cnccn3)nn2)CC1 [Example FO, 4-({6-[(Pyrazin-2-yl)({5-[5-(trifluoromethyl)-1,2,4-oxadiazol-3-yl]thiophen-2-yl}methyl)amino]pyridazin-3-yl}methyl)-1lambda4-thiomorpholin-1-one] | ≤ 1000 nM | > 10000 nM | ≤ 1000 nM | > 10000 nM | > 10000 nM |
| CNC(=O)c1cnnc(N(Cc2ccc(-c3noc(C(F)(F)F)n3)s2)c2cnccn2)c1 [Example DY, N-Methyl-6-[(pyrazin-2-yl)({5-[5-(trifluoromethyl)-1,2,4-oxadiazol-3-yl]thiophen-2-yl}methyl)amino]pyridazine-4-carboxamide] | ≤ 500 nM | > 10000 nM | ≤ 1000 nM | > 10000 nM | > 10000 nM |
| FC(F)(F)c1nc(-c2ccc(CN(c3cnccn3)c3cc(-c4ccccn4)cnn3)s2)no1 [Example GM, N-(Pyrazin-2-yl)-5-(pyridin-2-yl)-N-({5-[5-(trifluoromethyl)-1,2,4-oxadiazol-3-yl]thiophen-2-yl}methyl)pyridazin-3-amine] | ≤ 500 nM | > 10000 nM | ≤ 10000 nM | > 10000 nM | > 10000 nM |
| O=C(c1cnnc(N(Cc2ccc(-c3noc(C(F)(F)F)n3)s2)c2cnccn2)c1)N1CC[S+]([O-])CC1 [Example FU, 4-{6-[(Pyrazin-2-yl)({5-[5-(trifluoromethyl)-1,2,4-oxadiazol-3-yl]thiophen-2-yl}methyl)amino]pyridazine-4-carbonyl}-1lambda4-thiomorpholin-1-one] | ≤ 10000 nM | > 10000 nM | ≤ 1000 nM | > 10000 nM | > 10000 nM |
| O=C(c1ccc(N(Cc2ccc(-c3noc(C(F)(F)F)n3)s2)c2cnccn2)nn1)N1CCCC1 [Example FI, N-(Pyrazin-2-yl)-6-(pyrrolidine-1-carbonyl)-N-({5-[5-(trifluoromethyl)-1,2,4-oxadiazol-3-yl]thiophen-2-yl}methyl)pyridazin-3-amine] | ≤ 500 nM | > 10000 nM | ≤ 500 nM | > 10000 nM | ≤ 10000 nM |
| O=C(O)c1cnnc(N(Cc2sc(-c3noc(C(F)(F)F)n3)cc2F)c2cnccn2)c1 [Example FA, 6-[({3-fluoro-5-[5-(trifluoromethyl)-1,2,4-oxadiazol-3-yl]thiophen-2-yl}methyl)(pyrazin-2-yl)amino]pyridazine-4-carboxylic acid] | ≤ 1000 nM | > 10000 nM | ≤ 1000 nM | > 10000 nM | ≤ 10000 nM |
| CN1CCN(C(=O)c2cnnc(N(Cc3ccc(-c4noc(C(F)(F)F)n4)s3)c3cnccn3)c2)CC1 [Example EC, 5-(4-Methylpiperazine-1-carbonyl)-N-(pyrazin-2-yl)-N-({5-[5-(trifluoromethyl)-1,2,4-oxadiazol-3-yl]thiophen-2-yl}methyl)pyridazin-3-amine] | ≤ 1000 nM | > 10000 nM | ≤ 10000 nM | > 10000 nM | > 10000 nM |
| O=C(c1cnnc(N(Cc2ccc(-c3noc(C(F)(F)F)n3)s2)c2cnccn2)c1)N1CCC1 [Example FS, 5-(Azetidine-1-carbonyl)-N-(pyrazin-2-yl)-N-({5-[5-(trifluoromethyl)-1,2,4-oxadiazol-3-yl]thiophen-2-yl}methyl)pyridazin-3-amine] | ≤ 1000 nM | > 10000 nM | ≤ 1000 nM | > 10000 nM | > 10000 nM |
| O=C(c1cnnc(N(Cc2ccc(-c3noc(C(F)(F)F)n3)s2)c2cnccn2)c1)N1CC(F)(F)C1 [Example FT, 5-(3,3-Difluoroazetidine-1-carbonyl)-N-(pyrazin-2-yl)-N-({5-[5-(trifluoromethyl)-1,2,4-oxadiazol-3-yl]thiophen-2-yl}methyl)pyridazin-3-amine] | ≤ 10000 nM | > 10000 nM | ≤ 1000 nM | > 10000 nM | > 10000 nM |
| FC(F)(F)c1nc(-c2ccc(CN(c3cnccn3)c3cc(CN4CCOCC4)ccn3)s2)no1 [Example GI, N-{4-[(Morpholin-4-yl)methyl]pyridin-2-yl}-N-({5-[5-(trifluoromethyl)-1,2,4-oxadiazol-3-yl]thiophen-2-yl}methyl)pyrazin-2-amine] | ≤ 10000 nM | > 10000 nM | ≤ 10000 nM | > 10000 nM | > 10000 nM |
| C[C@H]1CCCN1C(=O)c1cnnc(N(Cc2ccc(-c3noc(C(F)(F)F)n3)s2)c2cnccn2)c1 [Example GY, 5-[(2S)-2-Methylpyrrolidine-1-carbonyl]-N-(pyrazin-2-yl)-N-({5-[5-(trifluoromethyl)-1,2,4-oxadiazol-3-yl]thiophen-2-yl}methyl)pyridazin-3-amine] | ≤ 10000 nM | > 10000 nM | ≤ 1000 nM | > 10000 nM | > 10000 nM |
| CC(C)(O)c1cnnc(N(Cc2ccc(-c3noc(C(F)(F)F)n3)s2)c2cnccn2)c1 [Example GS, 2-{6-[(Pyrazin-2-yl)({5-[5-(trifluoromethyl)-1,2,4-oxadiazol-3-yl]thiophen-2-yl}methyl)amino]pyridazin-4-yl}propan-2-ol] | ≤ 1000 nM | > 10000 nM | ≤ 1000 nM | > 10000 nM | > 10000 nM |
| O=C(c1ccc(N(Cc2ccc(-c3noc(C(F)(F)F)n3)s2)c2cnccn2)nn1)N1CC[S+]([O-])CC1 [Example FD, 4-{6-[(Pyrazin-2-yl)({5-[5-(trifluoromethyl)-1,2,4-oxadiazol-3-yl]thiophen-2-yl}methyl)amino]pyridazine-3-carbonyl}-1lambda4-thiomorpholin-1-one] | ≤ 500 nM | > 10000 nM | ≤ 500 nM | > 10000 nM | ≤ 10000 nM |
| CN(C)C1CN(C(=O)c2cnnc(N(Cc3ccc(-c4noc(C(F)(F)F)n4)s3)c3cnccn3)c2)C1 [Example FX, 5-[3-(Dimethylamino)azetidine-1-carbonyl]-N-(pyrazin-2-yl)-N-({5-[5-(trifluoromethyl)-1,2,4-oxadiazol-3-yl]thiophen-2-yl}methyl)pyridazin-3-amine] | ≤ 1000 nM | > 10000 nM | ≤ 10000 nM | > 10000 nM | > 10000 nM |
| O=C(c1cnnc(N(Cc2ccc(-c3noc(C(F)(F)F)n3)s2)c2cnccn2)c1)N1C[C@H]2C[C@@H]1CO2 [Example FW, 5-[(1R,4R)-2-Oxa-5-azabicyclo[2.2.1]heptane-5-carbonyl]-N-(pyrazin-2-yl)-N-({5-[5-(trifluoromethyl)-1,2,4-oxadiazol-3-yl]thiophen-2-yl}methyl)pyridazin-3-amine] | ≤ 10000 nM | > 10000 nM | ≤ 1000 nM | > 10000 nM | ≤ 10000 nM |

— patent US20210038607A1, “OXADIAZOLYLTHIOPHENE DERIVATIVES USEFUL AS HISTONE DEACETYLASE INHIBITORS” (Karus Therapeutics Limited, priority 2018, published 2021)
